The structures appear in SMILES notation. In brackets after ≈: the same amount, converted by molar mass.

In this test the test system is DG-75. Nature of the test: Cytotoxicity against human DG75 cells. It is filed as functional, cell-based.
`C=C1/C=C(\C)[C@@H](C)C[C@H](O)CC(=O)[C@H](O)[C@@H](O)[C@H](C)C[C@H](C)OC(=O)[C@@H](C)[C@@H](O)CCCC[C@@H]2O[C@H]2C[C@H](C)C1` [AMPHIDINOLIDE B6] had an IC50 of 0.02 µg/mL (≈ 0.0353 µM).

For the compound `C=C1/C=C(\C)[C@@H](C)C[C@H](O)CC(=O)[C@H](O)[C@@H](O)[C@H](C)C[C@H](C)OC(=O)/C(C)=C/CC/C=C/[C@@H]2O[C@H]2C[C@H](C)C1` [AMPHIDINOLIDE B7], half-maximal inhibition (IC50) required 0.4 µg/mL (≈ 0.732 µM).

For the compound `C=C1/C=C(\C)[C@@H](C)C[C@H](O)CC(=O)[C@H](O)[C@@H](O)[C@H](C)C[C@H](CO)OC(=O)/C(C)=C/CC/C=C/[C@@H]2O[C@H]2C[C@H](C)C1` [AMPHIDINOLIDE H], inhibition was half-maximal at 0.001 µg/mL (≈ 0.00178 µM) (IC50).

Source of the values: ChEMBL document CHEMBL1141321, “Amphidinolides B6 and B7, cytotoxic macrolides from a symbiotic dinoflagellate Amphidinium species” (J Nat Prod, 2007).
